Laboratory results reported in patent US9511058B2, “Methods for using carboxamide, sulfonamide and amine compounds” (Rigel Pharmaceuticals, Inc., priority 2010, dated 2016).

Biological target: AMPK
Assay: AMPK activation, enzyme-linked immunosorbent assay
Type: biochemical
Conditions: compounds of Table 5 (Table 10)

Row | EC50 | Compound
1 | < 1000 nM | O=C(NC1CCN(Cc2ccc(F)cc2)CC1)c1ccc(OC2CCN(c3ccc(C(F)(F)F)cc3)CC2)c(F)c1 [5-27, 3-fluoro-N-(1-(4-fluorobenzyl)piperidin-4-yl)-4-(1-(4-(trifluoromethyl)phenyl)piperidin-4-yloxy)benzamide]
2 | < 1000 nM | O=C(NC1CCN(Cc2ccncc2)CC1)c1ccc(OC2CCN(c3ccc(C(F)(F)F)cc3)CC2)c(F)c1 [5-28, 3-fluoro-N-(1-(pyridin-4-ylmethyl)piperidin-4-yl)-4-(1-(4-(trifluoromethyl)phenyl)piperidin-4-yloxy)benzamide]
3 | < 1000 nM | O=C(NC1CCN(Cc2cccnc2)CC1)c1ccc(OC2CCN(c3ccc(C(F)(F)F)cc3)CC2)c(F)c1 [5-29, 3-fluoro-N-(1-(pyridin-3-ylmethyl)piperidin-4-yl)-4-(1-(4-(trifluoromethyl)phenyl)piperidin-4-yloxy)benzamide]
4 | < 1000 nM | CC(C)(C)C(=O)N1CCC(NC(=O)c2ccc(OC3CCN(c4ccc(C(F)(F)F)cc4)CC3)c(F)c2)CC1 [5-30, 3-fluoro-N-(1-pivaloylpiperidin-4-yl)-4-(1-(4-(trifluoromethyl)phenyl)piperidin-4-yloxy)benzamide]
5 | < 1000 nM | O=C(NC1CCN(C(=O)c2ccc(F)cc2)CC1)c1ccc(OC2CCN(c3ccc(C(F)(F)F)cc3)CC2)c(F)c1 [5-31, 3-fluoro-N-(1-(4-fluorobenzoyl)piperidin-4-yl)-4-(1-(4-(trifluoromethyl)phenyl)piperidin-4-yloxy)benzamide]
6 | < 1000 nM | O=C(NC1CCN(Cc2ccccn2)CC1)c1ccc(OC2CCN(c3ccc(C(F)(F)F)cc3)CC2)c(F)c1 [5-32, 3-fluoro-N-(1-(pyridin-2-ylmethyl)piperidin-4-yl)-4-(1-(4-(trifluoromethyl)phenyl)piperidin-4-yloxy)benzamide]
7 | < 1000 nM | COC(=O)c1ccc(CN2CCC(NC(=O)c3ccc(OC4CCN(c5ccc(C(F)(F)F)cc5)CC4)c(F)c3)CC2)cc1 [5-33, methyl 4-((4-(3-fluoro-4-(1-(4-(trifluoromethyl)phenyl)piperidin-4-yloxy)benzamido)piperidin-1-yl)methyl)benzoate]
8 | < 1000 nM | CC(C)S(=O)(=O)N1CCC(NC(=O)c2ccc(OC3CCN(c4ccc(C(F)(F)F)cc4)CC3)c(F)c2)CC1 [5-34, 3-fluoro-N-(1-(isopropylsulfonyl)piperidin-4-yl)-4-(1-(4-(trifluoromethyl)phenyl)piperidin-4-yloxy)benzamide]
9 | 1000 to 10000 nM | O=C(O)c1ccc(CN2CCC(NC(=O)c3ccc(OC4CCN(c5ccc(C(F)(F)F)cc5)CC4)c(F)c3)CC2)cc1 [5-35, 4-((4-(3-fluoro-4-(1-(4-(trifluoromethyl)phenyl)piperidin-4-yloxy)benzamido)piperidin-1-yl)methyl)benzoic acid]
10 | < 1000 nM | CC(C)(C)c1ccc(CN2CCC(Oc3ccc(C(=O)NC4CCN(c5ccccc5)CC4)cc3F)CC2)cc1 [5-36, 4-(1-(4-tert-butylbenzyl)piperidin-4-yloxy)-3-fluoro-N-(1-phenylpiperidin-4-yl)benzamide]
11 | < 1000 nM | O=C(NC1CCN(Cc2ccccc2)CC1)c1ccc(OC2CCN(Cc3ccncc3)CC2)c(F)c1 [5-37, N-(1-benzylpiperidin-4-yl)-3-fluoro-4-(1-(pyridin-4-ylmethyl)piperidin-4-yloxy)benzamide]
12 | 1000 to 10000 nM | O=C(NC1CCN(Cc2ccccc2)CC1)c1ccc(OC2CCN(Cc3cccnc3)CC2)c(F)c1 [5-38, N-(1-benzylpiperidin-4-yl)-3-fluoro-4-(1-(pyridin-3-ylmethyl)piperidin-4-yloxy)benzamide]
13 | 1000 to 10000 nM | O=C(NC1CCN(Cc2ccccc2)CC1)c1ccc(OC2CCN(Cc3ccccn3)CC2)c(F)c1 [5-39, N-(1-benzylpiperidin-4-yl)-3-fluoro-4-(1-(pyridin-2-ylmethyl)piperidin-4-yloxy)benzamide]
14 | < 1000 nM | O=C(NC1CCN(C(=O)c2ccncc2)CC1)c1ccc(OC2CCN(c3ccc(C(F)(F)F)cc3)CC2)c(F)c1 [5-40, 3-fluoro-N-(1-isonicotinoylpiperidin-4-yl)-4-(1-(4-(trifluoromethyl)phenyl)piperidin-4-yloxy)benzamide]
15 | < 1000 nM | N#Cc1ccc(CN2CCC(Oc3ccc(C(=O)NC4CCN(Cc5ccccc5)CC4)cc3F)CC2)cc1 [5-41, N-(1-benzylpiperidin-4-yl)-4-(1-(4-cyanobenzyl)piperidin-4-yloxy)-3-fluorobenzamide]
16 | < 1000 nM | Cc1ccc(CN2CCC(Oc3ccc(C(=O)NC4CCN(Cc5ccccc5)CC4)cc3F)CC2)cc1 [5-42, N-(1-benzylpiperidin-4-yl)-3-fluoro-4-(1-(4-methylbenzyl)piperidin-4-yloxy)benzamide]
17 | < 1000 nM | N#Cc1ccc(CN2CCC(NC(=O)c3ccc(OC4CCN(c5ccc(C(F)(F)F)cc5)CC4)c(F)c3)CC2)cc1 [5-43, N-(1-(4-cyanobenzyl)piperidin-4-yl)-3-fluoro-4-(1-(4-(trifluoromethyl)phenyl)piperidin-4-yloxy)benzamide]
18 | < 1000 nM | N#Cc1ccc(N2CCC(Oc3ccc(C(=O)NC4CCN(Cc5ccncc5)CC4)cc3F)CC2)cc1 [5-44, 4-(1-(4-cyanophenyl)piperidin-4-yloxy)-3-fluoro-N-(1-(pyridin-4-ylmethyl)piperidin-4-yl)benzamide]
19 | < 1000 nM | N#Cc1ccc(CN2CCC(NC(=O)c3ccc(OC4CCN(c5ccc(C#N)cc5)CC4)c(F)c3)CC2)cc1 [5-45, N-(1-(4-cyanobenzyl)piperidin-4-yl)-4-(1-(4-cyanophenyl)piperidin-4-yloxy)-3-fluorobenzamide]

Row | EC50 | Compound
20 | < 1000 nM | O=C(NC1CCN(Cc2ccccc2)CC1)c1cccc(OC2CCN(c3ccc(C(F)(F)F)cc3)CC2)c1 [5-46, N-(1-benzylpiperidin-4-yl)-3-(1-(4-(trifluoromethyl)phenyl)piperidin-4-yloxy)benzamide]
21 | < 1000 nM | O=C(NC1CCN(Cc2ccccc2)CC1)c1ccc(OC2CCN(c3ccc(C(F)(F)F)cc3)CC2)cc1Cl [5-47, N-(1-benzylpiperidin-4-yl)-2-chloro-4-(1-(4-(trifluoromethyl)phenyl)piperidin-4-yloxy)benzamide]
22 | < 1000 nM | N#Cc1ccc(N2CCC(Oc3cccc(C(=O)NC4CCN(Cc5ccccc5)CC4)c3)CC2)cc1 [5-48, N-(1-benzylpiperidin-4-yl)-3-(1-(4-cyanophenyl)piperidin-4-yloxy)benzamide]
23 | < 1000 nM | N#Cc1ccc(N2CCC(Oc3ccc(C(=O)NC4CCN(Cc5ccccc5)CC4)c(Cl)c3)CC2)cc1 [5-49, N-(1-benzylpiperidin-4-yl)-2-chloro-4-(1-(4-cyanophenyl)piperidin-4-yloxy)benzamide]
24 | 1000 to 10000 nM | N#Cc1ccc(CN2CCC(Oc3cccc(C(=O)NC4CCN(Cc5ccccc5)CC4)c3)CC2)cc1 [5-50, N-(1-benzylpiperidin-4-yl)-3-(1-(4-cyanobenzyl)piperidin-4-yloxy)benzamide]
25 | < 1000 nM | N#Cc1ccc(CN2CCC(Oc3ccc(C(=O)NC4CCN(Cc5ccccc5)CC4)c(Cl)c3)CC2)cc1 [5-51, N-(1-benzylpiperidin-4-yl)-2-chloro-4-(1-(4-cyanobenzyl)piperidin-4-yloxy)benzamide]
26 | 1000 to 10000 nM | O=C(NC1CCN(Cc2ccccc2)CC1)c1cccc(OC2CCN(Cc3ccc(C(F)(F)F)cc3)CC2)c1 [5-52, N-(1-benzylpiperidin-4-yl)-3-(1-(4-(trifluoromethyl)benzyl)piperidin-4-yloxy)benzamide]
27 | 10000 to 20000 nM | O=C(NC1CCN(Cc2ccccc2)CC1)c1cccc(OC2CCN(c3ccncc3)CC2)c1 [5-53, N-(1-benzylpiperidin-4-yl)-3-(1-(pyridin-4-yl)piperidin-4-yloxy)benzamide]
28 | < 1000 nM | O=C(NC1CCN(Cc2ccccc2)CC1)c1ccc(OC2CCN(Cc3ccc(OC(F)(F)F)cc3)CC2)c(Cl)c1 [5-54, N-(1-benzylpiperidin-4-yl)-3-chloro-4-(1-(4-(trifluoromethoxy)benzyl)piperidin-4-yloxy)benzamide]
29 | < 1000 nM | O=C(NC1CCN(Cc2ccccc2)CC1)c1ccc(OC2CCN(Cc3ccc(C(F)(F)F)cc3)CC2)c(F)c1 [5-55, N-(1-benzylpiperidin-4-yl)-3-fluoro-4-(1-(4-(trifluoromethyl)benzyl)piperidin-4-yloxy)benzamide]
30 | < 1000 nM | O=C(NC1CCN(Cc2ccccc2)CC1)c1ccc(OC2CCN(Cc3ccc(C(F)(F)F)cc3)CC2)c(Cl)c1 [5-56, N-(1-benzylpiperidin-4-yl)-3-chloro-4-(1-(4-(trifluoromethyl)benzyl)piperidin-4-yloxy)benzamide]
31 | < 1000 nM | O=C(NC1CCN(Cc2ccccc2)CC1)c1ccc(OC2CCN(Cc3ccc(OC(F)(F)F)cc3)CC2)c(F)c1 [5-57, N-(1-benzylpiperidin-4-yl)-3-fluoro-4-(1-(4-(trifluoromethoxy)benzyl)piperidin-4-yloxy)benzamide]
32 | 1000 to 10000 nM | CN1CCC(NC(=O)c2ccc(OC3CCN(Cc4ccc(C(F)(F)F)cc4)CC3)c(Cl)c2)CC1 [5-58, 3-chloro-N-(1-methylpiperidin-4-yl)-4-(1-(4-(trifluoromethyl)benzyl)piperidin-4-yloxy)benzamide]
33 | < 1000 nM | O=C(NC1CCN(Cc2ccccc2)CC1)c1ccc(OC2CCN(Cc3cccc(C(F)(F)F)c3)CC2)c(F)c1 [5-59, N-(1-benzylpiperidin-4-yl)-3-fluoro-4-(1-(3-(trifluoromethyl)benzyl)piperidin-4-yloxy)benzamide]
34 | < 1000 nM | O=C(NC1CCN(Cc2ccccc2)CC1)c1ccc(OC2CCN(Cc3cccc(C(F)(F)F)c3)CC2)c(Cl)c1 [5-60, N-(1-benzylpiperidin-4-yl)-3-chloro-4-(1-(3-(trifluoromethyl)benzyl)piperidin-4-yloxy)benzamide]
35 | < 1000 nM | O=C(NC1CCN(Cc2ccccc2)CC1)c1ccc(OC2CCN(Cc3ccc(F)cc3)CC2)c(F)c1 [5-61, N-(1-benzylpiperidin-4-yl)-3-fluoro-4-(1-(4-fluorobenzyl)piperidin-4-yloxy)benzamide]
36 | < 1000 nM | O=C(NC1CCN(Cc2ccccc2)CC1)c1cc(Cl)c(OC2CCN(Cc3cccc(C(F)(F)F)c3)CC2)c(Cl)c1 [5-62, N-(1-benzylpiperidin-4-yl)-3,5-dichloro-4-(1-(3-(trifluoromethyl)benzyl)piperidin-4-yloxy)benzamide]
37 | < 1000 nM | O=C(NC1CCN(Cc2ccccc2)CC1)c1ccc(OC2CCN(Cc3ccc(OC(F)(F)F)cc3)CC2)cc1 [5-63, N-(1-benzylpiperidin-4-yl)-4-(1-(4-(trifluoromethoxy)benzyl)piperidin-4-yloxy)benzamide]
